Data reported in ChEMBL document CHEMBL2203034, “A new approach to explore the binding space of polysaccharide-based ligands: selectin antagonists” (ACS Med Chem Lett, 2012).

Experiments:
[1] = molecular target: T1, P-selectin (Homo sapiens) (UniProt P16109); assay: Ratio of compound IC50 to sialyl Lewisx IC50 for solube P-selectin by surface plasmon resonance competitive binding assay
T1 sequence (whole entry): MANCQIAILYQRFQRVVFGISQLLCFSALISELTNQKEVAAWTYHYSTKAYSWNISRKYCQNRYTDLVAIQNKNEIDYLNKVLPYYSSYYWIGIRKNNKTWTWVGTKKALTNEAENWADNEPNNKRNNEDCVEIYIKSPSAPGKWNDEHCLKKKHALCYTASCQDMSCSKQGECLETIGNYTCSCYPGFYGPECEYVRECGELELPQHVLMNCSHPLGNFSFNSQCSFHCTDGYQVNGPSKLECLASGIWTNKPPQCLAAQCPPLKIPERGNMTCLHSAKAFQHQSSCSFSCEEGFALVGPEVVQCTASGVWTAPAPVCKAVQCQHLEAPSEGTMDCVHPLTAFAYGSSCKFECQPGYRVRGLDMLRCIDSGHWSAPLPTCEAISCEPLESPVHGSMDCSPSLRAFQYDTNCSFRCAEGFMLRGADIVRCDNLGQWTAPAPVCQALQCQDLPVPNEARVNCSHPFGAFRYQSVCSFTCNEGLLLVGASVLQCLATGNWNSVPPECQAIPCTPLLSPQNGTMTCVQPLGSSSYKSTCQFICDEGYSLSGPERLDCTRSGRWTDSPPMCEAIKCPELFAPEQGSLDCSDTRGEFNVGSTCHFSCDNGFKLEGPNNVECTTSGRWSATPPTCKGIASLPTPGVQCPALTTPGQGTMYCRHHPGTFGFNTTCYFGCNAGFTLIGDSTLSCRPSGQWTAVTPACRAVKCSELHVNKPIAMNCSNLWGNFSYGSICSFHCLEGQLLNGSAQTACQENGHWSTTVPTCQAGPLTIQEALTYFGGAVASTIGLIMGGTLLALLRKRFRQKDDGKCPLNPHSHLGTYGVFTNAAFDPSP

[2] = molecular target: T2, P-selectin (Homo sapiens, UniProt P16109); assay: Inhibition of immobilized rhPSGL-Ig binding to soluble P-selectin by surface plasmon resonance competitive binding assay
T2 sequence (P16109 whole entry): T1 sequence (whole entry)

Compound	Ratio IC50 [1]	IC50 [2] [µM]
COC(=O)[C@H](O[C@@H]1O[C@@H](C)[C@@H](O)[C@@H](O)[C@@H]1O)[C@@H](O[C@@H]1O[C@H](CO)[C@H](OC(=O)c2ccccc2)[C@H](O[C@H](Cc2ccccc2)C(=O)O)[C@H]1O)C(=O)OC	37	18
COC(=O)[C@H](O[C@@H]1O[C@@H](C)[C@@H](O)[C@@H](O)[C@@H]1O)[C@@H](O[C@@H]1O[C@H](CO)[C@H](O)[C@H](OCC(=O)O)[C@H]1O)C(=O)OC		> 1000
COC(=O)[C@H](O[C@@H]1O[C@@H](C)[C@@H](O)[C@@H](O)[C@@H]1O)[C@@H](O[C@@H]1O[C@H](CO)[C@H](OC(=O)c2cccc3ccccc23)[C@H](O[C@H](Cc2ccccc2)C(=O)O)[C@H]1O)C(=O)OC		> 1000
COC(=O)[C@H](O[C@@H]1O[C@@H](C)[C@@H](O)[C@@H](O)[C@@H]1O)[C@@H](O[C@@H]1O[C@H](CO)[C@H](O)[C@H](O[C@H](Cc2ccccc2)C(=O)O)[C@H]1O)C(=O)OC	0.75	880
